Structures can show the parent of a compound that is named as a salt.
Legend:
[1] = in vivo; cited from earlier work
[2] = Pre-clinical, clinical and single and multiple-dose Phase 1 studies: safe daily dose; format: in vivo; conditions: once daily
[3] = system: secretion of interleukin (IL)-17 and IFNγ; conditions: in vitro; cited from earlier work
[4] = system: experimental autoimmune encephalomyelitis; conditions: rodents; cited from earlier work
[5] = system: neurofilament light chain in serum; assay: EMPhASIS: change in serum neurofilament light chain; format: in vivo, human; conditions: for Median change in neurofilament light chain in serum from baseline to week 24: placebo 6.5%
Protocol: Other secondary endpoints included: the difference in the cumulative number of combined unique active lesions up to week 24 between vidofludimus calcium 45 mg and vidofludimus calcium 30 mg; number or cumulative number of gadolinium-enhancing, T1, or T2 lesions up to 24 weeks; annualized relapse rate from baseline until week 24; proportion of relapse-free patients up to week 24; time-to-first relapse; change in EDSS score from baseline; proportion of patients with EDSS score progression; brain atrophy and other MRI endpoints; and safety and tolerability as assessed by the investigators. Annualized relapse rate was defined as the total number of confirmed relapses divided by the real exposure time in years assessed over the time during the double-blind treatment period. EDSS progression was defined as an increase compared to baseline of at least 1.0 point for patients with a baseline EDSS score of 1.0 to 4.0 or of at least 1.5 points for patients with a baseline EDSS score of 0. Vidofludimus calcium trough concentrations (weeks 6 and 24) were used to assess the correlation between pharmacokinetics and MRI-based assessments. The effects of vidofludimus calcium on serum neurofilament (baseline and week 24) were also analyzed.
Based on pre-clinical and clinical studies and the single and multiple-dose Phase 1 studies with IMU-838, daily doses of IMU-838 of up to 50 mg once daily are considered safe. […] A post-hoc analysis from EMPhASIS study (see Example 1 and 2) in the non-relapse active subgroup of rrMS patients was conducted. […] Change in mean EDSS from baseline to Week 24 in a non-relapse active subgroup of rrMS patients (patients without relapse between baseline and Week 24).

[6] = system: patients with relapsing-remitting multiple sclerosis; conditions: in vivo
Protocol: (§1) Adverse events were assessed at screening, baseline, day 7, and weeks 6, 12, 18, and 24 and all unscheduled clinic visits. Routine clinical chemistries, haematology, liver function tests, and urinalysis were collected at baseline, day 7, and weeks 6, 12, 18, and 24. Vital signs and electrocardiogramere conducted at screening and regularly scheduled intervals. Adverse events of special interest included: red blood cells in urine, haematuria, and retroperitoneal colicky pain with suspected or confirmed nephrolithiasis.
(§2) The intention-to-treat population was defined as all randomized patients who received at least one dose of placebo or vidofludimus calcium and were analyzed by the groups to which they were randomized. The safety population included all randomized patients who received at least one dose of placebo or vidofludimus calcium and was analyzed by the treatment assigned. The per-protocol population was defined as all randomized patients receiving at least one dose of placebo or vidofludimus calcium and no violations of major protocol criteria during treatment. The modified intention-to-treat population was defined as all randomized patients receiving at least one dose of placebo or vidofludimus calcium and having all MRI scans available for analysis.

[7] = system: patients with relapsing-remitting multiple sclerosis; assay: EMPhASIS Cohort 1: safety and tolerability; conditions: for proportion of patients with at least one treatment-emergent adverse event: 24 weeks, placebo 44%; for patients who discontinued the study treatment prematurely: placebo 7%
Protocol: as §1, §2

[8] = system: patients with relapsing-remitting multiple sclerosis; assay: EMPhASIS phase 2 trial Cohort 1: MRI lesions up to 24 weeks; format: in vivo, human
Protocol: Study design and participants: […] Eligible patients were randomly assigned in a 1:1:1 ratio by an interactive web response system to receive once-daily vidofludimus calcium (30 mg or 45 mg) or placebo over a 24 week period. Procedures: Participants took vidofludimus calcium (30 mg or 45 mg) or placebo once daily in the morning in a fasted state (before breakfast) for 24 weeks. To minimize the risk of changes to uric acid during the first seven days of dosing (induction phase), the assigned dose (containing vidofludimus calcium 15 mg, vidofludimus calcium 22.5 mg or placebo) was taken days 0-6 and then the full dose thereafter (maintenance phase). Participants underwent standardized brain MRI scans at baseline and every 6 weeks after the first day of dosing until week 24. MRI scans were centrally analyzed by a blinded and independent MRI center. […] In the case of suspected or protocol-defined confirmed relapse, corticosteroid treatment was provided at the discretion of the investigator. Pharmacokinetic and pharmacodynamic measurements were also collected. Outcomes: The primary endpoint was the difference in the cumulative number of combined unique active (CUA) lesions up to week 24 between vidofludimus calcium 45 mg and placebo in the intention-to-treat population (i.e., weeks 6 to 24). The key secondary was the same outcome between vidofludimus calcium 30 mg and placebo. A sensitivity analysis of the primary endpoint and key secondary endpoint was done in the per-protocol population and the modified intention-to-treat population. In addition, prespecified subgroup analyses of the primary endpoint and key secondary endpoint in the intention-to-treat population were done based on baseline demographics (gender, age, weight, country), MRI characteristics (gadolinium-enhancing lesions strata) and clinical characteristics (EDSS score, duration of disease and relapse history). […] Other secondary endpoints included: the difference in the cumulative number of combined unique active lesions up to week 24 between vidofludimus calcium 45 mg and vidofludimus calcium 30 mg; number or cumulative number of gadolinium-enhancing, T1, or T2 lesions up to 24 weeks; annualized relapse rate from baseline until week 24; proportion of relapse-free patients up to week 24; time-to-first relapse; change in EDSS score from baseline; proportion of patients with EDSS score progression; brain atrophy and other MRI endpoints; and safety and tolerability as assessed by the investigators. Annualized relapse rate was defined as the total number of confirmed relapses divided by the real exposure time in years assessed over the time during the double-blind treatment period. EDSS progression was defined as an increase compared to baseline of at least 1.0 point for patients with a baseline EDSS score of 1.0 to 4.0 or of at least 1.5 points for patients with a baseline EDSS score of 0. Vidofludimus calcium trough concentrations (weeks 6 and 24) were used to assess the correlation between pharmacokinetics and MRI-based assessments. The effects of vidofludimus calcium on serum neurofilament (baseline and week 24) were also analyzed. Statistical analysis: The primary and secondary efficacy endpoints were analyzed using a generalized linear model with a negative binomial distribution and a logarithmic link function. Independent effects included in the model were: treatment group; baseline volume of T2 lesions; MRI field strength; and baseline number of gadolinium-enhancing lesions. The natural log transformation of the time from the first dose to the date of the last MRI assessment was included as an offset term to account for different lengths of treatment.

human DHODH = human DHODH (Homo sapiens, UniProt Q02127); conditions: cited from earlier work
Chain of human DHODH (Q02127 whole entry): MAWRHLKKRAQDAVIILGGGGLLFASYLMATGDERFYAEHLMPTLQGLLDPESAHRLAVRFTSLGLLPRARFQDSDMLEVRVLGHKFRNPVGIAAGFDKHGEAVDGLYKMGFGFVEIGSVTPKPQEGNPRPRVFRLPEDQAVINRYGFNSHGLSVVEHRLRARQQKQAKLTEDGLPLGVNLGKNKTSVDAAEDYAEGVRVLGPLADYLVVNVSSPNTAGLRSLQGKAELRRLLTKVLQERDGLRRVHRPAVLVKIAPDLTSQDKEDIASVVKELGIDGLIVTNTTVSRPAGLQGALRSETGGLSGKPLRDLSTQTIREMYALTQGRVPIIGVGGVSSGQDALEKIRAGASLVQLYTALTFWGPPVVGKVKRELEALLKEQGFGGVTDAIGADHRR

COc1cccc(-c2ccc(NC(=O)C3=C(C(=O)O)CCC3)c(F)c2)c1 [vidofludimus calcium, 1-cyclopentene-1-carboxylic acid, 2-(((3-fluoro-3′-methoxy(1,1′-biphenyl)-4-yl)amino)carbonyl)-, calcium salt (2:1)]
half-life [1]: approximately 30 h | daily dose considered safe [2]: up to 50 mg | secretion of interleukin (IL)-17 and IFNγ [3]: inhibited | activity in experimental autoimmune encephalomyelitis [4]: dose-dependent activity | Median change in neurofilament light chain in serum from baseline to week 24 ([5]; 30 mg once daily): −17.0% | decrease in serum neurofilament light chain (NfL), dose comparison ([5]; 45 mg dose, FIG. 3A): greater decrease | Median change in neurofilament light chain in serum from baseline to week 24 ([5]; 45 mg once daily): −20.5% | deaths during the trial [6]: No deaths occurred | patients experiencing serious adverse events ([7]; 30 mg group, considered unrelated to treatment): 2 patients | proportion of patients with at least one treatment-emergent adverse event ([7]; 30 mg): 45% | patients who discontinued the study treatment prematurely ([7]; 30 mg): 3% | patients who met hepatotoxicity stopping rules ([7]; 45 mg group): two | proportion of patients with at least one treatment-emergent adverse event ([7]; 45 mg): 41% | patients who discontinued the study treatment prematurely ([7]; 45 mg): 6% | Serious adverse events ([7]; across treatment groups): 0-3% | Renal treatment-emergent events, patients ([7]; any dose, placebo 1%): 2% | Hepatic treatment-emergent adverse events, patients ([7]; any dose, placebo 4%): 4% | Adverse events of special interest, patients ([7]; any dose, ureterolithiasis, placebo 1%): 1% | tolerability ([7]; both doses (30 mg and 45 mg)): well tolerated | cardiovascular, haematological, infectious or malignancy-related adverse events ([7]; in vivo): No remarkable cardiovascular, haematological, infectious or malignancy-related adverse events | changes in haematologic laboratory values (neutrophil, lymphocyte, leukocyte count) ([7]; in vivo): No changes | changes in serum uric acid ([7]; over 24 weeks, any treatment group): No marked changes | discontinuations attributable to treatment-emergent adverse events ([7]; vidofludimus calcium groups, placebo n=3): 2 patients | Alopecia, fatigue, rash, and cystitis treatment-emergent adverse events not recorded in placebo-treated patients ([7]; vidofludimus calcium-treated patients): 1-4% | suppression of MRI activity ([8]; 30 mg dose, after 24-weeks of treatment, rrMS): 70% | cumulative number of new gadolinium-enhancing lesions at week 24 ([8]; 30 mg once daily): 4.5 (95% Cl 2.7-7.7) | Cumulative CUA lesions up to 24 weeks, adjusted mean (95% CI) ([8]; 30 mg once daily, key secondary endpoint analysis (30 mg vs placebo), intention-to-treat): 4.0 (2.2-7.2) | Cumulative CUA lesions up to 24 weeks, adjusted mean (95% CI) ([8]; 30 mg once daily, secondary endpoint analysis (45 mg vs 30 mg), intention-to-treat): 4.2 (2.5-7.1) | Rate ratio, cumulative CUA lesions up to 24 weeks ([8]; 30 mg vs placebo, intention-to-treat): 0.30 | cumulative number of new gadolinium-enhancing lesions at week 24 ([8]; 45 mg once daily): 4.0 (95% Cl 2.1-7.8) | Cumulative CUA lesions up to 24 weeks, adjusted mean (95% CI) ([8]; 45 mg once daily, primary endpoint analysis (45 mg vs placebo), intention-to-treat): 2.4 (1.1-4.9) | Cumulative CUA lesions up to 24 weeks, adjusted mean (95% CI) ([8]; 45 mg once daily, secondary endpoint analysis (45 mg vs 30 mg), intention-to-treat): 4.4 (2.4-8.1) | Rate ratio, cumulative CUA lesions up to 24 weeks ([8]; 45 mg vs placebo, intention-to-treat): 0.38 | Rate ratio, cumulative CUA lesions up to 24 weeks ([8]; secondary endpoint (45 mg vs 30 mg), printed in the 30 mg line): 0.96 | potency against human DHODH (human DHODH): submicromolar potency

From patent US12433860B2, “Treatment of multiple sclerosis comprising DHODH inhibitors” (Immunic AG, priority 2021, dated 2025)
